Experimental data taken from ChEMBL document CHEMBL4376829, “Discovery and biological evaluation of vinylsulfonamide derivatives as highly potent, covalent TEAD autopalmitoylation inhibitors” (Eur J Med Chem, 2019).
Activity calls are given as the source filed them. No cut-off for these calls is given here.

Legend:
[1] = target: Mitogen-activated protein kinase kinase kinase kinase 3 (Homo sapiens) (UniProt Q8IVH8); test: Inhibition of recombinant human MAP4K3 (1 to 291 residues) at 10 uM using RLGRDKYKTLRQIRQ as substrate measured after 40 mins in presence of [gamma33P]ATP by scintillation counting method relative to control
[2] = target: Rhodopsin kinase GRK7 (Homo sapiens) (UniProt Q8WTQ7); test: Inhibition of full length recombinant human GRK7 at 10 uM using casein as substrate after 40 mins in presence of [gamma33P]ATP by scintillation counting method relative to control
[3] = target: Catenin beta-1 (Homo sapiens) (UniProt P35222); test: Inhibition of beta catenin (unknown origin) expressed in HEK293T cells at 10 to 20 uM by dual-TOPFlash reporter gene assay; assay type: cell-based
[4] = target: Serine/threonine-protein kinase TAO1 (Homo sapiens) (UniProt Q7L7X3); test: Inhibition of recombinant human TAO1 (1 to 327 residues) at 10 uM using myelin basic protein as substrate measured after 40 mins in presence of [gamma33P]ATP by scintillation counting method relative to control
[5] = target: T1, Transcriptional enhancer factor TEF-3 (Homo sapiens, UniProt Q15561); test: Binding affinity to N-terminal His6-tagged human TEAD4-YBD (217 to 434 residues) expressed in Escherichia coli C43 (DE3) cells assessed as change in melting temperature at 1:2 ratio by SYPRO-dye based thermal shift assay
[6] = target: Receptor-type tyrosine-protein kinase FLT3 (Homo sapiens) (UniProt P36888); test: Inhibition of recombinant human Flt3 (564 to end residues) at 10 uM using EAIYAAPFAKKK as substrate after 40 mins in presence of [gamma33P]ATP by scintillation counting method relative to control
[7] = target: Fibroblast growth factor receptor 2 (Homo sapiens) (UniProt P21802); test: Inhibition of recombinant human FGFR2 (456 to 770 residues) at 10 uM using poly(Glu, Tyr) 4:1 as substrate measured after 40 mins in presence of [gamma33P]ATP by scintillation counting method relative to control
[8] = target: LIM domain kinase 2 (Homo sapiens) (UniProt P53671); test: Inhibition of human LIMK2 at 10 uM by radiometric assay relative to control
[9] = target: Cyclin-dependent kinase 5/CDK5 activator 1 (Homo sapiens) (UniProt Q00535+Q15078); test: Inhibition of recombinant full-length human CDK5/p25 at 10 uM using histone H1 as substrate measured after 40 mins in presence of [gamma33P]ATP by scintillation counting method relative to control; assay type: protein-complex assay
[10] = target: Tyrosine-protein kinase JAK1 (Homo sapiens) (UniProt P23458); test: Inhibition of recombinant human JAK1 (866 to end residues) at 10 uM using GEEPLYWSFPAKK as substrate measured after 40 mins in presence of [gamm33P]ATP by scintillation counting method relative to control
[11] = target: Ephrin type-B receptor 4 (Homo sapiens) (UniProt P54760); test: Inhibition of human EphB4 (561 to end residues) using poly (Glu, Tyr) 4:1 as substrate at 10 uM after 40 mins in presence of [gamma-33P]-ATP by scintillation counting relative to control
[12] = target: T1, Transcriptional enhancer factor TEF-3; test: Inhibition of N-terminal His6 tagged human TEAD4-YBD (217 to 434 residues) expressed in Escherichia coli C43 (DE3) cells assessed as reduction in autopalmitoylation at 800 nM preincubated for 2 hrs followed by palmitoyl alkyne-coenzyme A addition and measured after 30 mins by immunoblot analysis relative to control
Homo sapiens [13] = species: Homo sapiens; test: Inhibition of full-length recombinant human PKA at 10 uM using LRRASLG as substrate after 40 mins by in presence of [gamma33P]ATP by scintillation counting method relative to control
[14] = target: Serine/threonine-protein kinase 17A (Homo sapiens) (UniProt Q9UEE5); test: Inhibition of full-length recombinant human DRAK1 at 10 uM using KKLNRTLSFAEPG as substrate after 40 mins by in presence of [gamma33P]ATP by scintillation counting method relative to control
[15] = target: Serine-protein kinase ATM (Homo sapiens) (UniProt Q13315); test: Inhibition of recombinant full-length human ATM at 10 uM using GST-cMyc-p53 as substrate measured after 40 mins by ELISA method relative to control
[16] = target: TGF-beta receptor type-2 (Homo sapiens) (UniProt P37173); test: Inhibition of recombinant human TGFBR2 (188 to end residues) at 10 uM using myelin basic protein as substrate measured after 120 mins in presence of [gamm33P]ATP by scintillation counting method relative to control
[17] = system: Transcriptional enhancer factor TEF-3 (Homo sapiens), Q15561 [C410A]; test: Binding affinity to TEAD4-YBD C410A mutant (unknown origin) assessed as change in melting temperature by SYPRO-dye based thermal shift assay
[18] = target: Fatty acid-binding protein, adipocyte (Homo sapiens) (UniProt P15090); test: Binding affinity to FABP4 (unknown origin) at 1:1 ratio by fluorescence based thermal shift assay
[19] = target: Serine/threonine-protein kinase 4 (Homo sapiens) (UniProt Q13043); test: Inhibition of recombinant full-length human MST1 at 10 uM using KKSRGDYMTMQIG as substrate measured after 40 mins in presence of [gamma33P]ATP by scintillation counting method relative to control
[20] = target: T1, Transcriptional enhancer factor TEF-3; test: Binding affinity to TEAD4 in human HCT116 cells assessed as increase in soluble form of TEAD4 level at 50 uM preincubated for 4 hrs followed by heating at 51.6 to 64.4 degC for 3 mins by immunoblot-based […]; assay type: cell-based
Homo sapiens [21] = species: Homo sapiens; test: Inhibition of recombinant full-length human PI3K p120gamma R459Q mutant at 10 uM using phosphatidylinositol-4, 5-bisphosphate as substrate measured after 40 mins by fluorescence assay relative to control
[22] = target: Dual specificity mitogen-activated protein kinase kinase 2 (Homo sapiens) (UniProt P36507); test: Inhibition of recombinant full-length human MEK2 at 10 uM using MBP as substrate measured after 40 mins in presence of [gamma33P]ATP by scintillation counting method relative to control
[23] = target: Interleukin-1 receptor-associated kinase 1 (Homo sapiens) (UniProt P51617); test: Inhibition of recombinant human IRAK1 (194 to end residues) at 10 uM using myelin basic protein as substrate after 40 mins in presence of [gamma33P]ATP by scintillation counting method relative to control
[24] = target: Cytoplasmic tyrosine-protein kinase BMX (Homo sapiens) (UniProt P51813); test: Inhibition of full-length recombinant human BMX at 10 uM using poly(Glu, Tyr) 4:1 as substrate measured after 40 mins in presence of [gamma33P]ATP by scintillation counting method relative to control
[25] = target: Eukaryotic translation initiation factor 2-alpha kinase 3 (Homo sapiens) (UniProt Q9NZJ5); test: Inhibition of recombinant human PEK (536 to end residues) at 10 uM using RSRSRSRSRSRSRSR as substrate measured after 40 mins in presence of [gamma33P]ATP by scintillation counting method relative to control

T1 sequence (Q15561 whole entry, the tested form may be a part): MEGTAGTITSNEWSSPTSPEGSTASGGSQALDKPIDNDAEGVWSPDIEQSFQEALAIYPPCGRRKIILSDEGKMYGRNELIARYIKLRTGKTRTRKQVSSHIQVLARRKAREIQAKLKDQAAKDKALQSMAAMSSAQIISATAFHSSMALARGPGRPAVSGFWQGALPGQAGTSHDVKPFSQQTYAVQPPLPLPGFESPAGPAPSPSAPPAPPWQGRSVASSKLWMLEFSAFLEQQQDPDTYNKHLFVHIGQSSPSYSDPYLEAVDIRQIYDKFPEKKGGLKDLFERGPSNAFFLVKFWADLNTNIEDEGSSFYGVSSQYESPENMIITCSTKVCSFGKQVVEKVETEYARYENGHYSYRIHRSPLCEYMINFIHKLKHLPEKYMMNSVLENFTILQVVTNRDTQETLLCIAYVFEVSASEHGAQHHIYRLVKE
Cyclin-dependent kinase 5/CDK5 activator 1 (Homo sapiens), sequence (Q00535 whole entry): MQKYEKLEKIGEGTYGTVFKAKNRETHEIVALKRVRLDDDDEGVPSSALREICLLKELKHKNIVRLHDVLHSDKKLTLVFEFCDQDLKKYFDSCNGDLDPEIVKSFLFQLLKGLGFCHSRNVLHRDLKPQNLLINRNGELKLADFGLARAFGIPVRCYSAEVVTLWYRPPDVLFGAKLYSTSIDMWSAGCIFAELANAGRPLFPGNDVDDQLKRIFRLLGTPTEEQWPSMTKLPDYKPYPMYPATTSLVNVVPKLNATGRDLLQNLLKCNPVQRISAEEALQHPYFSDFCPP
Cyclin-dependent kinase 5/CDK5 activator 1 (Homo sapiens), sequence (Q15078 99-307 partner limits assumed): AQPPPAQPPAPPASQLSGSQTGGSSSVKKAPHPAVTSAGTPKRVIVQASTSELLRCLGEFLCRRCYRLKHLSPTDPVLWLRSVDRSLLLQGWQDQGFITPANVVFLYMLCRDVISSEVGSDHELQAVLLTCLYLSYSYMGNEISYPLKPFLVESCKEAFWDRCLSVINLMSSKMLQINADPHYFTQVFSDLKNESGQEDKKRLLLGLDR
Serine/threonine-protein kinase 17A (Homo sapiens), sequence (Q9UEE5 whole entry): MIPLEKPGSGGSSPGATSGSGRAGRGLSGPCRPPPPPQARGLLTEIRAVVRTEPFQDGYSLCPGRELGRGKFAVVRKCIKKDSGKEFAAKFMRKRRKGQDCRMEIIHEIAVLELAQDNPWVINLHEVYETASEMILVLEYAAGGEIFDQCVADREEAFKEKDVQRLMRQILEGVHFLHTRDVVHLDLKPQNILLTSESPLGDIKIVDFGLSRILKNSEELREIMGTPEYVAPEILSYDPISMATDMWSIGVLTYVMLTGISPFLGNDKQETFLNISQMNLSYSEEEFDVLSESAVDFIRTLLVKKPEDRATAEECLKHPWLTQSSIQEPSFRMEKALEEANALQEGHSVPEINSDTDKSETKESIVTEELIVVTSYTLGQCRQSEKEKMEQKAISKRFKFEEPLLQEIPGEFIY
Mitogen-activated protein kinase kinase kinase kinase 3 (Homo sapiens), sequence (Q8IVH8 whole entry, the tested form may be a part): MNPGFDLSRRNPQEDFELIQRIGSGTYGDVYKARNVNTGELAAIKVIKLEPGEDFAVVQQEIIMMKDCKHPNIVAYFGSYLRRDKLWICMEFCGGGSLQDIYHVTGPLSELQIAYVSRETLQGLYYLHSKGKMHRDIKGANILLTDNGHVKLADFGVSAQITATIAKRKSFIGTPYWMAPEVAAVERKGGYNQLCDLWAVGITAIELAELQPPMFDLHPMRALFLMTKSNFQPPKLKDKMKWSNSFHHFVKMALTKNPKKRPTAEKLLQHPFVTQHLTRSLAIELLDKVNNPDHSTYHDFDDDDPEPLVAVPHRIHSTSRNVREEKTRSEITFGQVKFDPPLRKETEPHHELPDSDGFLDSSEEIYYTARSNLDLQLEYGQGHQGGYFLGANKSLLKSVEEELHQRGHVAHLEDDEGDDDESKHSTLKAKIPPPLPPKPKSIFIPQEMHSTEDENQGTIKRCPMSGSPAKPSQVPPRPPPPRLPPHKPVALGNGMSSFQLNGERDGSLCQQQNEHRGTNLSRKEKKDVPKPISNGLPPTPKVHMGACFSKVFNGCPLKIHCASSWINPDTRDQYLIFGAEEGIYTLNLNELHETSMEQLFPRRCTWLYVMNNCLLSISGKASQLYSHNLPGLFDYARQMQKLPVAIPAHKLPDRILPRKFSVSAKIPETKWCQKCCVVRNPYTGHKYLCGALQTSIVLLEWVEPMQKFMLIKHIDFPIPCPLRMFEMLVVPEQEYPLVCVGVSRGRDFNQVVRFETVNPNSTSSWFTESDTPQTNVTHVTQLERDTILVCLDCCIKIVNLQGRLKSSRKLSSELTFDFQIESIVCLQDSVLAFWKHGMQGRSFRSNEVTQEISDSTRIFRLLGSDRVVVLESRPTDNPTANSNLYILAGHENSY
Dual specificity mitogen-activated protein kinase kinase 2 (Homo sapiens), sequence (P36507 whole entry): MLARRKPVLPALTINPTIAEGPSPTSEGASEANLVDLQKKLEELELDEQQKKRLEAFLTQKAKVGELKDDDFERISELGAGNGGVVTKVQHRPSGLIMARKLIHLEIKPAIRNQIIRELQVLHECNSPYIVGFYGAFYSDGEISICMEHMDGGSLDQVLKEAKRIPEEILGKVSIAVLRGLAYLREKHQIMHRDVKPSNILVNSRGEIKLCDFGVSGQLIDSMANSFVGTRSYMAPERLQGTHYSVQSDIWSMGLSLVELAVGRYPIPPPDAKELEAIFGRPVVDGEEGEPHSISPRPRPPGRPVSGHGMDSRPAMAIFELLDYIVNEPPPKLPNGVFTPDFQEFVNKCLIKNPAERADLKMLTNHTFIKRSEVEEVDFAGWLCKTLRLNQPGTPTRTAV
Fatty acid-binding protein, adipocyte (Homo sapiens), sequence (P15090 2-132 limits assumed): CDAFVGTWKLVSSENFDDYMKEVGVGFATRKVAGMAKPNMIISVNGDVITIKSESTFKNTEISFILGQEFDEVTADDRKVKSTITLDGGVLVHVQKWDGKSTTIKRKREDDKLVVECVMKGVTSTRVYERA
Fibroblast growth factor receptor 2 (Homo sapiens), sequence (P21802 22-821 limits assumed): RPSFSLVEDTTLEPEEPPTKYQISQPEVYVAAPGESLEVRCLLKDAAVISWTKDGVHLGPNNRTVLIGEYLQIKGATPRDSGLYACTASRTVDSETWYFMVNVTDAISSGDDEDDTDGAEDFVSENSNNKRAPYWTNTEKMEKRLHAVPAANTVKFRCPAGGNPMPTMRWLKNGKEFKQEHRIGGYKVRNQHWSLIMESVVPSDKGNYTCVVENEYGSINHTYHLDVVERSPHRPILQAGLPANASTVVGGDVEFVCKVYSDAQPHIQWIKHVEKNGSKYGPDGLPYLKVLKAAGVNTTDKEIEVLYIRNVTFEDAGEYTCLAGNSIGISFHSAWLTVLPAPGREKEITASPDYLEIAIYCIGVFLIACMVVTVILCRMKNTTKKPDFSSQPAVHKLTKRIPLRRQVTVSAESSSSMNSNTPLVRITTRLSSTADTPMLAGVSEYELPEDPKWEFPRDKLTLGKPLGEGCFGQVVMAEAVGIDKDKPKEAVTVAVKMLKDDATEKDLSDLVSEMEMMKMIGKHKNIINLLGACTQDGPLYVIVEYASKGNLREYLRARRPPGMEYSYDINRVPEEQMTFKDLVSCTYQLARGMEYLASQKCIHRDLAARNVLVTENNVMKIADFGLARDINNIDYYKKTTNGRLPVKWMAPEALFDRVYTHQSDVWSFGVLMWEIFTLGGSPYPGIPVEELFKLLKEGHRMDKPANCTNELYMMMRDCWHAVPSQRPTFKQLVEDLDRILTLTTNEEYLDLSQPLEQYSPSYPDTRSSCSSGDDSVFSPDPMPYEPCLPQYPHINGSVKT
Catenin beta-1 (Homo sapiens), sequence (P35222 whole entry, the tested form may be a part): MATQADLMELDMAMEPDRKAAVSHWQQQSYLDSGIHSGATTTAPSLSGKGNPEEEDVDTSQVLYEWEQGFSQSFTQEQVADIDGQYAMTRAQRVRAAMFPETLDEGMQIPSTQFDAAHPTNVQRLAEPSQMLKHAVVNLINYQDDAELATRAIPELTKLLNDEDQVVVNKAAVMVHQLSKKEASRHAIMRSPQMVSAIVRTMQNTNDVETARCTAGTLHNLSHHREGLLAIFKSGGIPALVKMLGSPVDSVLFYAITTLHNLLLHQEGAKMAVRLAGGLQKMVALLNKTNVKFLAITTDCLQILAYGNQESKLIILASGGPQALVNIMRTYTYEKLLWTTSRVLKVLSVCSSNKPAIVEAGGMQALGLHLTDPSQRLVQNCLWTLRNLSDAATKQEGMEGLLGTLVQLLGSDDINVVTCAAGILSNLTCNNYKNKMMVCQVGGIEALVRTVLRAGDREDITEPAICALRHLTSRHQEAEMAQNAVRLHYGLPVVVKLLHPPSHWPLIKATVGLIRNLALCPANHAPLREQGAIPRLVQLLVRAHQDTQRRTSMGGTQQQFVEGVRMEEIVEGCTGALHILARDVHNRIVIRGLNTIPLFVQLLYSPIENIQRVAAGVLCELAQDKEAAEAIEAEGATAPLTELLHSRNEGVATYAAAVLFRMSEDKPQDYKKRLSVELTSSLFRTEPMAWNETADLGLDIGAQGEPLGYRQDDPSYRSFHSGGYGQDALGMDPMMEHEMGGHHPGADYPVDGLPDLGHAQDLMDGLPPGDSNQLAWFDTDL
Transcriptional enhancer factor TEF-3 (Homo sapiens), Q15561 [C410A], sequence (Q15561 whole entry C410A): as the sequence (Q15561 whole entry, the tested form may be a part) above, with C410A counted along it

Compound: C=CS(=O)(=O)Nc1ccc(Cc2ccc3ccccc3c2)cc1
- inhibition [1]: 9%
- inhibition [2]: 4%
- inhibition [3]: inactive
- inhibition [4]: -10%
- ΔTm [5]: 7.4 °C
- inhibition [6]: 8%
- inhibition [7]: -4%
- inhibition [8]: -8%
- inhibition [9]: 0%
- inhibition [10]: 7%
- inhibition [11]: 8%
- inhibition [12]: 91.6%
- inhibition (Homo sapiens [13]): 1%
- inhibition [14]: -1%
- inhibition [15]: 2%
- inhibition [16]: 9%
- ΔTm [17]: 7.3 °C
- Activity [18]: Active
- inhibition [19]: 0%
- Activity [20]: Active
- inhibition (Homo sapiens [21]): 5%
- inhibition [22]: -9%
- inhibition [23]: -9%
- inhibition [24]: 19%
- inhibition [25]: -1%
